# Like-named read-outs stand apart in the source and are kept apart here. *1 amine or outer side, *2 acyl side, *3 side chain or, on linkers, in order; H or OH if unused. Where a SMILES comes first, the peptide text is derived from it. Suc = O=C(CCC(=O)[*:2])[*:1]
# What was measured:
# [1] = Effect of IRL1620 on plasma pharmacokinetics of paclitaxel, HPLC-UV; assay type: in vivo, rat; conditions: normal or tumor bearing rats; paclitaxel i.v. 3 mg/kg 15 minutes after IRL1620 3 nmol/kg
# Procedure: Virgin female Sprague Dawley rats (Harlan Co., Madison, Wis.), 48 days old (120-140 g) were used for this study. Upon arrival, all rats were housed three to a cage, in a room with controlled temperature (23±1° C.), humidity (50±10%) and artificial light (0600-1800 hr). The rats were given food and water ad libitum. The experiments were begun only after the rats have been acclimatized to the environment for at least 4 days.
# N-methyl-n-nitrosourea (MNU) was administered at a dose of 50 mg/kg, i.p. and rats were palpated twice weekly. Once tumors reached about 75-100 mm^3, pharmacokinetic studies were performed.
# HPLC-UV studies. […]
# Plasma samples were analyzed for paclitaxel using an HPLC system. […] A 100 μL (lower standard curve and samples collected after IV administration) aliquot of the reconstituted material was injected into a 4 mm NovaPak 150×3.9 mm C18 column (Waters Associates, Milford, Mass.) preceded by a 4 mm NovaPak 20×3.9 mm C18 precolumn using a Waters 2695 separations module connected to a Waters 2487 absorbance detector set at 227 nm. […] Plasma concentrations for paclitaxel were calculated from the ratio of the area of the paclitaxel peak to the area of the N-cyclohexyl benzamide peak using least-squares linear regression and weighting by 1/x. Within day and between days variability measured by a coefficient of variation was <10%. […]
# [2] = test system: JHU-4 (MAT-LyLu) prostate tumor; test: Effect of IRL1620 on [^14C]doxorubicin concentration in tumor and organs of prostate tumor bearing rats; assay type: in vivo, rat; conditions: for increase in concentration of [^14C]doxorubicin in tumor compared to saline treated rats: sacrifice 3 hours after
# Procedure: Prostate tumors were induced in male Copenhagen rats using JHU-4 (MAT-LyLu) cells obtained from ATCC (Manassas, Va.). See Gaddipati et al., J Exp Ther Oncol, 4(3): 203-12 (2004) which is hereby incorporated by reference. The cells were maintained in RPMI 1640 medium supplemented with fetal bovine serum (10%) in a humidified incubator containing 5% CO2 at 37° C. Hair was shaved from the dorsal side of the neck, and animals were inoculated with 10,000 JHU-4 (MAT-LyLu) cells in 100 μl phosphate buffered saline by subcutaneous (s.c.) injection. Tumor appearance and location was monitored by manual palpation and tumor diameters were measured with a digital caliper. Experimental procedures began once tumor size reached about 200 mm^3.
# Biodistribution Study. Tumor bearing rats were randomly grouped (N=6/group) to receive saline or IRL1620 (1, 3 or 6 nmol/kg) via the tail vein in a final volume of 0.2 ml. Rats from each group then received [^14C]doxorubicin (1 μCi/rat) i.v. in a final volume of 1.0 ml 15 minutes after saline or IRL1620 administration. Animals were then sacrificed 3 hours after [^14C]doxorubicin administration. The concentration of [^14C]doxorubicin in the tumor, heart, brain, kidneys, liver, lungs, bone marrow, prostate, skeletal muscles and spleen were examined. Specifically, tumor and organs were sliced into small pieces. The femurs from both legs were separated and weighed with bone marrow flushed out using a syringe containing tissue solubilizer. About 500 mg of tissue or tumor was placed in separate vials containing tissue solubilizer (6 ml) and incubated in a water bath at about 50° C. The vials were removed from the water bath after the tissue or tumor was dissolved and 1.2 ml of 10% glacial acetic acid was added. The contents of the vial were then equally divided into 3 vials and 15 ml of liquid scintillation cocktail (Safety Solve, RPI Corp, Chicago, Ill.) was added to each vial and kept overnight for equilibration. The radioactivity in the tubes was counted using a liquid scintillation counter (Beckman Coulter, LS 6500).
# [3] = test system: MNU-induced breast tumors; conditions: IRL1620 3 nmol/kg alone; 5 doses; 30 days after final dose
# [4] = test system: JHU-4 (MAT-LyLu) prostate tumor; conditions: IRL1620 3 nmol/kg alone; day 19
# [5] = test system: JHU-4 (MAT-LyLu) prostate tumor; conditions: IRL1620 3 nmol/kg alone; day 16
# [6] = test system: human melanoma cells (UISO-MEL-2) tumor; conditions: melanoma mice
# [7] = test system: MNU-induced breast tumor; test: Effect of IRL1620 on bio-distribution of [^3H] paclitaxel in tumor and major organs of breast tumor bearing rats; conditions: IRL1620 3 nmol/kg
# [8] = paclitaxel plasma, three compartmental model, tumor bearing rats, after vehicle or IRL1620 3 nmol/kg
smiles,measurement,setting,value
"CC[C@H](C)[C@H](NC(=O)[C@H](CC(=O)O)NC(=O)[C@H](CC(C)C)NC(=O)[C@H](Cc1c[nH]cn1)NC(=O)[C@H](C)NC(=O)[C@H](Cc1ccccc1)NC(=O)[C@H](Cc1ccc(O)cc1)NC(=O)[C@@H](NC(=O)[C@H](C)NC(=O)[C@H](CCC(=O)O)NC(=O)[C@H](CCC(=O)O)NC(=O)[C@H](CC(=O)O)NC(=O)CCC(=O)O)C(C)C)C(=O)N[C@H](C(=O)N[C@@H](Cc1c[nH]c2ccccc12)C(=O)O)[C@@H](C)CC [IRL1620, N-suc-[Glu9, Ala11, 15]ET-1 (8-21)] (Suc-DEEAVYFAHLDIIW-OH)",pharmacokinetic profile of paclitaxel,[1],not affected
same,change in the uptake of [^14C]doxorubicin in tumor or other tissues,[2]; 1 nmol/kg IRL1620 15 minutes before [^14C]doxorubicin,did not produce any significant change
same,increase in concentration of [^14C]doxorubicin in tumor compared to saline treated rats,[2]; 3 nmol/kg IRL1620 15 minutes before [^14C]doxorubicin,115.85%
same,increase in concentration of [^14C]doxorubicin in tumor compared to saline treated rats,[2]; 6 nmol/kg IRL1620 15 minutes before [^14C]doxorubicin,80.02%
same,"accumulation of [^14C]doxorubicin in the heart, brain, kidneys, liver, lungs, bone marrow, prostate, skeletal muscles or spleen compared to control animals","[2]; IRL1620 1, 3 or 6 nmol/kg",No dose of IRL1620 produced significant increases
same,effect on the pharmacokinetic profile of paclitaxel,"non-compartmental analysis, tumor bearing rats, IRL1620 3 nmol/kg i.v. 15 minutes before paclitaxel",did not affect
same,Lambda,"paclitaxel plasma, non-compartmental, tumor bearing rats, paclitaxel i.v. 15 minutes after vehicle or IRL1620 3 nmol/kg",0.10 ± 0.05
same,K10,[8],1.72 ± 0.57
same,K12,[8],34.93 ± 23.26
same,K13,[8],3.92 ± 1.88
same,paclitaxel compartmental pharmacokinetic parameters in the IRL1620 treated group versus the vehicle treated group,"three compartmental model, IRL1620 3 nmol/kg 15 minutes before paclitaxel",not significantly different
same,increase in body weight compared to baseline,[3],< 10%
same,body weight,[4],175.72 ± 2.35 g
same,body weight,[5],202.2 ± 7.28 g
same,percent difference in body weight gain from the beginning of the experiment,[5],14.19±1.66%
same,"accumulation of [^3H]paclitaxel in the heart, kidneys, liver, lungs or spleen compared to saline treated animals",[6]; IRL1620 3 nmol/kg,did not produce significant increases
same,increase in tumor [^3H]paclitaxel compared to vehicle treated mice,[6]; IRL1620 3 nmol/kg 15 minutes before [^3H]paclitaxel,572.99%
same,tumor [^3H]paclitaxel concentration,"[6]; IRL1620 3 nmol/kg 15 minutes before [^3H]paclitaxel, sacrifice 3 hours after",274.28 nmol/g tissue
same,"accumulation of paclitaxel in the liver, lungs, kidneys and spleen compared to control animals",[7],did not significantly alter
same,increase in tumor paclitaxel concentration compared to saline treated rats,"[7]; [^3H] paclitaxel administered 15 minutes after IRL1620, sacrifice 3 hours after paclitaxel",277.1%
same,increase in tumor paclitaxel concentration compared to saline treated rats,[7]; [^3H] paclitaxel administered 240 minutes after IRL1620,34.7%

# Reference: US8729023B2 (priority 2002, dated 2014)
